The values below come from patent US20240261440A1, “COMPOSITIONS, METHODS AND USES FOR TREATING CYSTIC FIBROSIS AND RELATED DISORDERS” (The Board of Regents of The University of Texas System, priority 0001, published 2024).

The structures appear in SMILES notation.

This assay deals with C57BL/6 mice. As to the kind of experiment: In vivo Luc mRNA delivery (IVIS luminescence imaging). More on the design: species or system mouse. Particulars: 0.1 mg kg-1 Luc mRNA, i.v., 6h; 20% to 50% cationic lipid. As for the experimental part: C57BL/6 mice with weight at around 20 g were i.v. injected with various Luc mRNA formulations (0.1 mg kg^−1 of Luc mRNA, n=3 per group). After 6 hours, these mice were injected with D-Luciferin (150 mg kg^−1, intraperitoneal) and imaged immediately using an IVIS Lumina system (Perkin Elmer). Afterwards, these mice were killed, and tissues were excised for ex vivo imaging using IVIS Lumina system.

Regarding `CCCCCCCC/C=C\CCCCCCCC(=O)OCC(C[N+](C)(C)C)OC(=O)CCCCCCC/C=C\CCCCCCCC` (stereo not shown) [DOTAP, 1,2-dioleoyl-3-trimethylammonium-propane], the “luciferase expression in mouse lungs, permanently cationic lipid screen in mDLNP-2” value is given as “higher luminescence activity than others”.
